Key:
Assay in all cases: KINOMEscan competition binding
Details in all cases: compound 10.0 µM
ERN1 (human) = ERN1 (human) (UniProt O75460)
BTK (human) = BTK (human) (UniProt Q06187)
CDK4 CCND1 (human) = CDK4 CCND1 (human) (UniProt P11802+P24385)
KDR (human) = KDR (human) (UniProt P35968)
MYLK3 (human) = MYLK3 (human) (UniProt Q32MK0)
ANKK1 (human) = ANKK1 (human) (UniProt Q8NFD2)
NEK2 (human) = NEK2 (human) (UniProt P51955)
EPHB4 (human) = EPHB4 (human) (UniProt P54760)
FLT3 (human) = FLT3 (human) (UniProt P36888)
[1] = tested on: EGFR (human), P00533 [747-751 del / S ins]
RPS6KA2 KD2 (human) = RPS6KA2 KD2 (human) (UniProt Q15349)
MAP4K3 (human) = MAP4K3 (human) (UniProt Q8IVH8)
RPS6KA2 KD1 (human) = RPS6KA2 KD1 (human) (UniProt Q15349)
EIF2AK2 (human) = EIF2AK2 (human) (UniProt P19525)
PIP4K2B (human) = PIP4K2B (human) (UniProt P78356)
Chain of PIP4K2B (human) (P78356 whole entry, looked up): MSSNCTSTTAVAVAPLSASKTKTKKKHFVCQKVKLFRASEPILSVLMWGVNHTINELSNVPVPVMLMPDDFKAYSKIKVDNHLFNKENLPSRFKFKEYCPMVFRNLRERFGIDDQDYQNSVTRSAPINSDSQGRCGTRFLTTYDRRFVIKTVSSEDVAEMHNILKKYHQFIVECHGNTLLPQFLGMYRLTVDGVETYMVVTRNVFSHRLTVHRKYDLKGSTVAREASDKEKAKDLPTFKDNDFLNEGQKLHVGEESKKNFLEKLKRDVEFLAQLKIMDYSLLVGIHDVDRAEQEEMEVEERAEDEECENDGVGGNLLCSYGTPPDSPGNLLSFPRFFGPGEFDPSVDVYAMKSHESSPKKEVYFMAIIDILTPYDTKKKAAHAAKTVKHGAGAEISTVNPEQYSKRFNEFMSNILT

NIM1 (human) = NIM1 (human) (UniProt Q8IY84)
Chain of NIM1 (human) (Q8IY84 whole entry, looked up): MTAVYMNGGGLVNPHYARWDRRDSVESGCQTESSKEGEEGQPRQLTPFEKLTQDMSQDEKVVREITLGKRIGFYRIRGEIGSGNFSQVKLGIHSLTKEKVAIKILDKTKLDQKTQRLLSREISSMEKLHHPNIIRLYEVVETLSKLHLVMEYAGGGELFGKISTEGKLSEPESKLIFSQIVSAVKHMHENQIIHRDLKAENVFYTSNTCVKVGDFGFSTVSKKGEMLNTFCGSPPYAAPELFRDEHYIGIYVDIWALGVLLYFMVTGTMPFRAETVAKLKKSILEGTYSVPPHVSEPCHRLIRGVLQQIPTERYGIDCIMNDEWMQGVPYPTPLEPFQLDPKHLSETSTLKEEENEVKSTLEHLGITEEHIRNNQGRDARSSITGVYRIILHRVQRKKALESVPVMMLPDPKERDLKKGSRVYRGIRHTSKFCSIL

TXK (human) = TXK (human) (UniProt P42681)
Chain of TXK (human) (P42681 whole entry, looked up): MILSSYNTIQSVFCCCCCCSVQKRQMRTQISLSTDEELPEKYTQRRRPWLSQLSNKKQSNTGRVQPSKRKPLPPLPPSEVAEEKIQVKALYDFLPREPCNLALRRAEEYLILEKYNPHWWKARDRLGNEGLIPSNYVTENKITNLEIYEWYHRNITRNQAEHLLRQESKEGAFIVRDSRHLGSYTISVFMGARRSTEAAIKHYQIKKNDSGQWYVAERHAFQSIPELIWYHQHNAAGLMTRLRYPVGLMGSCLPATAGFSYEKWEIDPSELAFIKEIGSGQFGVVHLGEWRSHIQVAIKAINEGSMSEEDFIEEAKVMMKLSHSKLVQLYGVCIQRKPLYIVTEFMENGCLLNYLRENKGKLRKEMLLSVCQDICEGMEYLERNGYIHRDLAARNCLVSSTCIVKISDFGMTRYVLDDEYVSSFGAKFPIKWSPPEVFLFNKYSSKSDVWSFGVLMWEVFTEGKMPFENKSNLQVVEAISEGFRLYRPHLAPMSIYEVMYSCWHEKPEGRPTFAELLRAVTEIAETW

NEK5 (human) = NEK5 (human) (UniProt Q6P3R8)
OXSR1 (human) = OXSR1 (human) (UniProt O95747)
Chain of OXSR1 (human) (O95747 whole entry, looked up): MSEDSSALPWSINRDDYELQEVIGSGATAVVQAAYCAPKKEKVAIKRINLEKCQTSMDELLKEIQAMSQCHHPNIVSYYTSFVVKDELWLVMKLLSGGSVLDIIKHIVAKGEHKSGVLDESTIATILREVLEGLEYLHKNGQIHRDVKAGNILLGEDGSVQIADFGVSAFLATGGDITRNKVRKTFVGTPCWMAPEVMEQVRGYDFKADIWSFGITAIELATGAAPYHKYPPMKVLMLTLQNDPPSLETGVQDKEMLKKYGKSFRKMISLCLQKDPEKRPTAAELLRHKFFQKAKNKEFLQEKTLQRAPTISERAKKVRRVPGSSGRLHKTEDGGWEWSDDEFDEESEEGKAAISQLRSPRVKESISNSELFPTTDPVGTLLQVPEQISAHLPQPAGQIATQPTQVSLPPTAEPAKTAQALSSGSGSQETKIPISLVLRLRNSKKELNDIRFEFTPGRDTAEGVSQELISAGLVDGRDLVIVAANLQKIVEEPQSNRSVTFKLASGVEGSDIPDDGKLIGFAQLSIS

MAPK4 (human) = MAPK4 (human) (UniProt P31152)
MAPK15 (human) = MAPK15 (human) (UniProt Q8TD08)
Chain of MAPK15 (human) (Q8TD08 whole entry, looked up): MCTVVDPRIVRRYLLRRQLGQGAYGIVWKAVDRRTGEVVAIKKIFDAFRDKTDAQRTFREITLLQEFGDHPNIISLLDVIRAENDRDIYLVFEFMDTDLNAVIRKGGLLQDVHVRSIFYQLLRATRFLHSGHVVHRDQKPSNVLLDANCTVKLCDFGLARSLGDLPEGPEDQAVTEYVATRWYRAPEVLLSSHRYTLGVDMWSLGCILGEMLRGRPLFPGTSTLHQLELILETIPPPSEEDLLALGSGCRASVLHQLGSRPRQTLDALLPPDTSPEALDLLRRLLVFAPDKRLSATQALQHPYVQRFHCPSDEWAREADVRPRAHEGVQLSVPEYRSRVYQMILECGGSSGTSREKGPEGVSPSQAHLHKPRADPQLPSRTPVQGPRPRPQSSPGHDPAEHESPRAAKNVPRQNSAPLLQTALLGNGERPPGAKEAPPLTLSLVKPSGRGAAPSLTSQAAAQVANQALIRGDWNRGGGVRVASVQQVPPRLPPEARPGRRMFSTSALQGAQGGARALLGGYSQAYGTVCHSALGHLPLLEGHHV

BMPR1A (human) = BMPR1A (human) (UniProt P36894)
CDK19 (human) = CDK19 (human) (UniProt Q9BWU1)
Chain of CDK19 (human) (Q9BWU1 whole entry, looked up): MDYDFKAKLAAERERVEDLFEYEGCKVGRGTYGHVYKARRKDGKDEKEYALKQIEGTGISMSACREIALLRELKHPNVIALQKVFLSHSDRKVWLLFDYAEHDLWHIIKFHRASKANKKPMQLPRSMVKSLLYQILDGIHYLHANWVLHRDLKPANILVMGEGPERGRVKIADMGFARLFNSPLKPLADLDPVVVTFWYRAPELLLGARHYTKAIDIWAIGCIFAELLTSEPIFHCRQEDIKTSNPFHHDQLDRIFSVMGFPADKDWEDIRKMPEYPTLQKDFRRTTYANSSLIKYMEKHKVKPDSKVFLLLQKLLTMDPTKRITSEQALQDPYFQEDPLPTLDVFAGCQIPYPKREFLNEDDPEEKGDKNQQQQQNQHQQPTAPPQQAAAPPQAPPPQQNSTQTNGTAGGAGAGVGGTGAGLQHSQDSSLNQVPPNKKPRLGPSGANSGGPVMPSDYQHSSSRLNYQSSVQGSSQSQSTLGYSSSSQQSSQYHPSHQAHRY

CAMK4 (human) = CAMK4 (human) (UniProt Q16566)
CSNK1G3 (human) = CSNK1G3 (human) (UniProt Q9Y6M4)
PRKAA1 (human) = PRKAA1 (human) (UniProt Q13131)
HIPK2 (human) = HIPK2 (human) (UniProt Q9H2X6)
WEE1 (human) = WEE1 (human) (UniProt P30291)
CaMK1 (human) = CaMK1 (human) (UniProt Q14012)
TGFBR1 (human) = TGFBR1 (human) (UniProt P36897)
GSK3B (human) = GSK3B (human) (UniProt P49841)
MYLK2 (human) = MYLK2 (human) (UniProt Q9H1R3)
Chain of MYLK2 (human) (Q9H1R3 whole entry, looked up): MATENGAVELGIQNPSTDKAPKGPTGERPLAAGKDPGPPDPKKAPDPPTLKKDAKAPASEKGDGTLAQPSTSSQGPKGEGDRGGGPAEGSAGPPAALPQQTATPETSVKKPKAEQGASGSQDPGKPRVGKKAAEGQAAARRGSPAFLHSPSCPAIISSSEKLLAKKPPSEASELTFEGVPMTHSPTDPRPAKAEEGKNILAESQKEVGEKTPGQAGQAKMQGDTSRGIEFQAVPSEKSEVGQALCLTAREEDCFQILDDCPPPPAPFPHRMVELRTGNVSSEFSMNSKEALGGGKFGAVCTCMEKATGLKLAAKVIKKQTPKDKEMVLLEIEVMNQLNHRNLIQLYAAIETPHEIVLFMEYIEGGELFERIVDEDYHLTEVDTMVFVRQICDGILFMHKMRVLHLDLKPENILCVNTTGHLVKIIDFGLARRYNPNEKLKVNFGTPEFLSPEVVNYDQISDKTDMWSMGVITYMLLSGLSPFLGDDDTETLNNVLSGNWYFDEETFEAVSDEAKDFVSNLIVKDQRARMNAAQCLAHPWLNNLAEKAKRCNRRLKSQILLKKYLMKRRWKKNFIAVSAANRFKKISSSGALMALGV

[2] = tested on: EGFR (human), P00533 [T790M]
PDGFRA (human) = PDGFRA (human) (UniProt P16234)
MYLK4 (human) = MYLK4 (human) (UniProt Q86YV6)

Chain of ANKK1 (human) (Q8NFD2 whole entry, looked up): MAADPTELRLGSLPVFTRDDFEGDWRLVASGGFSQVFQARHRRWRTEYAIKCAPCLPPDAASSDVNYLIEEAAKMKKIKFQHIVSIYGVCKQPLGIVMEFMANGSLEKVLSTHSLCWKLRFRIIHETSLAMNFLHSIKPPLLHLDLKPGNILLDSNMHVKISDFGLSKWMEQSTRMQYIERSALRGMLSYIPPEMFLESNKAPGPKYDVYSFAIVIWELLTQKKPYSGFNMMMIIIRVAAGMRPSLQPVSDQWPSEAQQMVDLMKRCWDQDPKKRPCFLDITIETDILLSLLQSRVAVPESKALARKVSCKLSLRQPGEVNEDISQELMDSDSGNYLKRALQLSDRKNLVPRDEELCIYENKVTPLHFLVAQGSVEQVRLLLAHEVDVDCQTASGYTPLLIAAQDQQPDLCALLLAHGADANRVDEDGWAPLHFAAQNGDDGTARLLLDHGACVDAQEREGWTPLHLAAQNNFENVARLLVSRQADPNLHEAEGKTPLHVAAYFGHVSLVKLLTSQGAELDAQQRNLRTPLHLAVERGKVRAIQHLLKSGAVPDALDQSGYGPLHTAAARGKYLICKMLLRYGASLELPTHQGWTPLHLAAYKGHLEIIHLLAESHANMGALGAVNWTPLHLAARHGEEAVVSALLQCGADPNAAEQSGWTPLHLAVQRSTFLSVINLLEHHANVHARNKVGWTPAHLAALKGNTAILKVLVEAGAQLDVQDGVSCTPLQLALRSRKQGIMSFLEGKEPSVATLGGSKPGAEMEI
Chain of CDK4 CCND1 (human) (P11802 whole entry, looked up): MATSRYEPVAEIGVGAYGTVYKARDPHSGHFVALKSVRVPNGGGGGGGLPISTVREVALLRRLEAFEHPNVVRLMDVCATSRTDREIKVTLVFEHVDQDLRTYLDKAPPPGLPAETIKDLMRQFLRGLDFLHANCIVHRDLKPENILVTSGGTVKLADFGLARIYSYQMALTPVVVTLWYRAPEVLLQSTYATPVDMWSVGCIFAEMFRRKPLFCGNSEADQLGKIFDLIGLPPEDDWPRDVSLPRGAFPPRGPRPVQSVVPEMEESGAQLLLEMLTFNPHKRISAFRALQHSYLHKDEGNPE
Chain of CDK4 CCND1 (human) (P24385 whole entry, looked up): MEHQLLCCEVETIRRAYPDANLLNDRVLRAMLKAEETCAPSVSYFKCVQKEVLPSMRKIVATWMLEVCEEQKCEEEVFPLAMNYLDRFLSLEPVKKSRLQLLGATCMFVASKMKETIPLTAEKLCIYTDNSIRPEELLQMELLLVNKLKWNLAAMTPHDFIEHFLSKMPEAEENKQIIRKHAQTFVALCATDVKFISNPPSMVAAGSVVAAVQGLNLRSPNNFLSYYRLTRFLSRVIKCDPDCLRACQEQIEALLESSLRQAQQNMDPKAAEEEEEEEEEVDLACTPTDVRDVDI

Row | Compound | kinase still bound, per cent of control (ERN1 (human)) [%] | kinase still bound, per cent of control (BTK (human)) [%] | kinase still bound, per cent of control (CDK4 CCND1 (human)) [%] | kinase still bound, per cent of control (KDR (human)) [%] | kinase still bound, per cent of control (MYLK3 (human)) [%] | kinase still bound, per cent of control (ANKK1 (human)) [%] | kinase still bound, per cent of control (NEK2 (human)) [%] | kinase still bound, per cent of control (EPHB4 (human)) [%] | kinase still bound, per cent of control (FLT3 (human)) [%] | kinase still bound, per cent of control [1] [%] | kinase still bound, per cent of control (RPS6KA2 KD2 (human)) [%] | kinase still bound, per cent of control (MAP4K3 (human)) [%] | kinase still bound, per cent of control (RPS6KA2 KD1 (human)) [%] | kinase still bound, per cent of control (EIF2AK2 (human)) [%] | kinase still bound, per cent of control (PIP4K2B (human)) [%] | kinase still bound, per cent of control (NIM1 (human)) [%] | kinase still bound, per cent of control (TXK (human)) [%] | kinase still bound, per cent of control (NEK5 (human)) [%] | kinase still bound, per cent of control (OXSR1 (human)) [%] | kinase still bound, per cent of control (MAPK4 (human)) [%] | further results
1 | O=c1cc(N2CCOCC2)oc2c(-c3cccc4c3sc3ccccc34)cccc12 | 93 | 100 | 100 | 100 | 100 | 100 | 96 | 87 | 100 | 100 | 83 | 76 | 97 | 72 | 100 | 100 | 91 | 100 | 100 | 100 | kinase still bound, per cent of control (MAPK15 (human)): 100%; kinase still bound, per cent of control (BMPR1A (human)): 94%; kinase still bound, per cent of control (CDK19 (human)): 100%; kinase still bound, per cent of control (CAMK4 (human)): 100%; kinase still bound, per cent of control (CSNK1G3 (human)): 100%; kinase still bound, per cent of control (PRKAA1 (human)): 100%; kinase still bound, per cent of control (HIPK2 (human)): 100%; kinase still bound, per cent of control (WEE1 (human)): 100%; kinase still bound, per cent of control (CaMK1 (human)): 91%; kinase still bound, per cent of control (TGFBR1 (human)): 100%; kinase still bound, per cent of control (GSK3B (human)): 44%; kinase still bound, per cent of control (MYLK2 (human)): 100%; kinase still bound, per cent of control [2]: 100%; kinase still bound, per cent of control (PDGFRA (human)): 100%; kinase still bound, per cent of control (MYLK4 (human)): 100%
2 | CN(C)C/C=C/C(=O)Nc1ccc(C(=O)Nc2cccc(Nc3nccc(-c4cccnc4)n3)c2)cc1 | 70 | 71 | 100 | 36 | 87 | 8.1 | 1.1 | 100 | 36 | 87 | 100 | 57 | 83 | 50 | 56 | 94 | 67 | 2.2 | 100 | 19 | kinase still bound, per cent of control (MAPK15 (human)): 23%; kinase still bound, per cent of control (BMPR1A (human)): 36%; kinase still bound, per cent of control (CDK19 (human)): 100%; kinase still bound, per cent of control (CAMK4 (human)): 100%; kinase still bound, per cent of control (CSNK1G3 (human)): 100%; kinase still bound, per cent of control (PRKAA1 (human)): 100%; kinase still bound, per cent of control (HIPK2 (human)): 2.6%; kinase still bound, per cent of control (WEE1 (human)): 100%; kinase still bound, per cent of control (CaMK1 (human)): 94%; kinase still bound, per cent of control (TGFBR1 (human)): 100%; kinase still bound, per cent of control (GSK3B (human)): 67%; kinase still bound, per cent of control (MYLK2 (human)): 53%; kinase still bound, per cent of control [2]: 65%; kinase still bound, per cent of control (PDGFRA (human)): 4%; kinase still bound, per cent of control (MYLK4 (human)): 36%
3 | CCN1CCN(C(=O)Cc2ccc(Nc3ncc(F)c(Nc4ccc(C(=O)Nc5ccccc5Cl)cc4)n3)cc2)CC1 | 91 | 27 | 34 | 16 | 100 | 36 | 87 | 76 | 0.7 | 47 | 57 | 42 | 65 | 15 | 1.6 | 79 | 2.2 | 7.9 | 100 | 82 | kinase still bound, per cent of control (MAPK15 (human)): 54%; kinase still bound, per cent of control (BMPR1A (human)): 3.3%; kinase still bound, per cent of control (CDK19 (human)): 76%; kinase still bound, per cent of control (CAMK4 (human)): 100%; kinase still bound, per cent of control (CSNK1G3 (human)): 100%; kinase still bound, per cent of control (PRKAA1 (human)): 32%; kinase still bound, per cent of control (HIPK2 (human)): 5%; kinase still bound, per cent of control (WEE1 (human)): 31%; kinase still bound, per cent of control (CaMK1 (human)): 14%; kinase still bound, per cent of control (TGFBR1 (human)): 57%; kinase still bound, per cent of control (GSK3B (human)): 61%; kinase still bound, per cent of control (MYLK2 (human)): 66%; kinase still bound, per cent of control [2]: 13%; kinase still bound, per cent of control (PDGFRA (human)): 38%; kinase still bound, per cent of control (MYLK4 (human)): 11%
4 | C=CC(=O)Nc1cc(-n2c(=O)ccc3cnc4ccc(-c5cn[nH]c5)cc4c32)ccc1C | 50 | 0.2 | 100 | 50 | 100 | 82 | 100 | 100 | 6.2 | 63 | 92 | 73 | 72 | 94 | 73 | 89 | 7 | 100 | 79 | 100 | kinase still bound, per cent of control (MAPK15 (human)): 24%; kinase still bound, per cent of control (BMPR1A (human)): 12%; kinase still bound, per cent of control (CDK19 (human)): 100%; kinase still bound, per cent of control (CAMK4 (human)): 100%; kinase still bound, per cent of control (CSNK1G3 (human)): 84%; kinase still bound, per cent of control (PRKAA1 (human)): 96%; kinase still bound, per cent of control (HIPK2 (human)): 48%; kinase still bound, per cent of control (WEE1 (human)): 100%; kinase still bound, per cent of control (CaMK1 (human)): 96%; kinase still bound, per cent of control (TGFBR1 (human)): 83%; kinase still bound, per cent of control (GSK3B (human)): 84%; kinase still bound, per cent of control (MYLK2 (human)): 89%; kinase still bound, per cent of control [2]: 1.4%; kinase still bound, per cent of control (PDGFRA (human)): 21%; kinase still bound, per cent of control (MYLK4 (human)): 88%

Reference: the kinase profiling compilation of Christmann-Franck et al. (2016)
